What all share (assay): E. coli hemG growth inhibition by herbicide, AtPPO1 variant
Common to all, as to assay type: cell-based
What all share (settings): read-out: percentage growth inhibition

Experiment [1] concerns the target T1, AtPPO1 E111F (Arabidopsis thaliana, UniProt P55826, E111F).
T1 construct: expressed in transfected cells; host or cells: E. coli BL21(DE3) hemG (hemG replaced by CmR), pET24a plasmid
T1 sequence (P55826 35-537 E111F): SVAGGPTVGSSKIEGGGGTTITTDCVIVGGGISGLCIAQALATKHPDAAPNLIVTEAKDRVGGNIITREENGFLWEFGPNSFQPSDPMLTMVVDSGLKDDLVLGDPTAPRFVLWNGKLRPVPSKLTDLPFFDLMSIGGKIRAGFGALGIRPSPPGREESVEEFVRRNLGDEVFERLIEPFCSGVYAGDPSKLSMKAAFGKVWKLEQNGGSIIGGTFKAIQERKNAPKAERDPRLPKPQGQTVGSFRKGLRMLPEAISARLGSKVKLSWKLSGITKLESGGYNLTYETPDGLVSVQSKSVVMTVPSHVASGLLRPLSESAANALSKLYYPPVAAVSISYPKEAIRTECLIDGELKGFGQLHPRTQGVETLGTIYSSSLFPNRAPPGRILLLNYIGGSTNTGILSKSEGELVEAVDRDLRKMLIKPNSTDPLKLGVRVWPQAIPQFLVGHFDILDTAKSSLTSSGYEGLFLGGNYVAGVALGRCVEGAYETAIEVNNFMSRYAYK
The source says: (§1) A pET24a plasmid containing a DNA sequence encoding a variant of PPO1 derived from Arabidopsis thaliana (AtPPO1), codon-optimised for expression in E. coli and under control of a T7 promoter, was synthesised by Twist Bioscience (SEQ ID NO:3). This plasmid was used as the basis of a Site Saturation Variant Library (SSVL) that substituted the codons at 352 amino acid positions for codons that encoded one of the other 19 amino acids, or removed the codon altogether, resulting in a translation product with a deletion at that position.
(§2) The SSVL was batch-transformed by electroporation into an E. coli BL21(DE3) hemG strain with the hemG gene replaced by CmR conferring resistance to chloramphenicol and spread onto LA supplemented with 50 μg/mL kanamycin, 25 μg/mL chloramphenicol and 20 μg/mL hematin. Each batch consisted of all the plasmids that contained variants at two sites.
(§3) Colonies from batch transformations were inoculated into 500 μL of Terrific broth supplemented with 50 μg/mL kanamycin, 25 μg/mL chloramphenicol and 20 μg/mL hematin in 96-deepwell blocks. Cultures were grown for 24 hours at 37° C. with shaking at 250 rpm.
(§4) Overnight cultures were centrifuged and the cell pellets resuspended with 500 μL of Terrific broth. The resuspended cultures were used at a ratio of 1:100 to inoculate a fresh 96-deepwell block containing 500 μL of Terrific broth supplemented with 0.1 mM IPTG, 50 μg/mL kanamycin, 25 μg/mL chloramphenicol and 6.25 ppm of herbicide […] or E or 0.78 ppm herbicide B or DMSO. Assay cultures were grown for 24 hours at 37° C. with shaking at 250 rpm with the OD600 being measured at 24 hours post inoculation. Strains that grew in both DMSO and herbicide were determined to be herbicide tolerant with the percentage of growth inhibition being calculated as below: […]

For experiment [2], the target named is T2, AtPPO1 L479N (Arabidopsis thaliana, UniProt P55826, L479N).
T2 construct: expressed in transfected cells; host or cells: E. coli BL21(DE3) hemG, pET24a plasmid
T2 sequence (P55826 35-537 L479N): T1 sequence (P55826 35-537 E111F) with F77E, L445N
Source text: as §1, §2, §3, §4

Experiment [3] deals with T3, AtPPO1 T431F (Arabidopsis thaliana, UniProt P55826, T431F).
T3 construct: expressed in transfected cells; host or cells: E. coli BL21(DE3) hemG, pET24a plasmid
T3 sequence (P55826 35-537 T431F): T1 sequence (P55826 35-537 E111F) with F77E, T397F
Source text: as §1, §2, §3, §4

The target in experiment [4] is T4, AtPPO1 Y361R (Arabidopsis thaliana, UniProt P55826, Y361R).
T4 sequence (P55826 35-537 P363R/Y361R): T1 sequence (P55826 35-537 E111F) with F77E
Source text: as §1, §2, §3, §4

The values that follow come from patent US20260297542A1, “HERBICIDE RESISTANT PLANTS” (SYNGENTA CROP PROTECTION AG, priority 2023, published 2026).

The inhibition is the drop in the measured response relative to a control, in per cent.

Positions count from the first letter of the chain named.

`C#CCN1C(=O)C(F)(F)Oc2cc(F)c(-n3c(=O)n(C)c(=S)n(C)c3=O)cc21` [Herbicide B, trifludimoxazin]: the inhibition at 0.78 ppm in experiment [1] worked out at 27%; in experiment [2] it was 23%; in experiment [3], 41%; in experiment [4], 36%.
Turning to `CCOC(=O)[C@]1(C)CC(c2cc(-n3c(=O)n(C)c(=S)n(C)c3=O)c(F)cc2Cl)=NO1` [Herbicide D, ethyl (5S)-3-[2-chloro-5-(3,5-dimethyl-2,6-dioxo-4-thioxo-1,3,5-triazinan-1-yl)-4-fluoro-phenyl]-5-methyl-4H-isoxazole-5-carboxylate], the inhibition at 6.25 ppm in experiment [1] was determined as 29%; in experiment [2], 3%; in experiment [3], 0%; in experiment [4], 43%.
Turning to `CC(C)N(C)S(=O)(=O)NC(=O)c1cc(-n2c(=O)cc(C(F)(F)F)n(C)c2=O)c(F)cc1Cl` [Herbicide E, saflufenacil], the inhibition at 6.25 ppm came to 66% in experiment [1], 31% in experiment [2], 37% in experiment [3] and 56% in experiment [4].
